#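 Values below derive from 48-hour exposures of cells grown in 96-well plates, with endpoints linearly interpolated between the two concentrations bracketing the appropriate inhibition level. At the GI50, growth is halved.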 Calls of active or inactive are those of the source. Cut-off read from the data, not from the text of the source: active = GI50 up to about 1.1 µM and inactive = higher. Where a SMILES comes first, the peptide text is derived from it. [ ]: non-standard residue; d: D form. Phe(4-NO2) = N[CH](Cc1ccc([N+](=O)[O-])cc1)C(=O)O
# Columns and labels:
# Assay in all cases: NCI anticancer screen, dose series, 48 h
# [1] = system: OVCAR-8
# [2] = system: RPMI-8226
# [3] = system: SW-620
# [4] = system: SNB-75
# [5] = system: UACC-62
# [6] = system: SF-539
# [7] = system: MOLT-4
# [8] = system: LOX IMVI
# [9] = system: CAKI-1
# [10] = system: OVCAR-3
# [11] = system: OVCAR-5
# [12] = system: TK-10
# [13] = system: A498
# [14] = system: NCI-H226
# [15] = system: HL-60
# [16] = system: SK-MEL-2
# [17] = system: IGROV-1
# [18] = system: MDA-MB-231
# [19] = system: Hs-578T
Structure (SMILES),GI50 [1],GI50 [2],GI50 [3],GI50 [4],GI50 [5],GI50 [6],GI50 [7],GI50 [8],GI50 [9],GI50 [10],GI50 [11],GI50 [12],GI50 [13],GI50 [14],GI50 [15],GI50 [16],GI50 [17],GI50 [18],GI50 [19]
COc1ccc(C2Oc3c(cc(O)c(OC)c3C)[C@@H]2C)cc1OC (stereo partly specified),> 100 µM (inactive),4.44 µM (inactive),71 µM (inactive),29.7 µM (inactive),90.2 µM (inactive),> 100 µM (inactive),76.2 µM (inactive),82.6 µM (inactive),37.2 µM (inactive),> 100 µM (inactive),> 100 µM (inactive),> 100 µM (inactive),> 100 µM (inactive),> 100 µM (inactive),50.2 µM (inactive),> 100 µM (inactive),> 100 µM (inactive),,
C=CCCCCCCCCC(=O)NS(=O)(=O)c1ccccc1,> 100 µM (inactive),35.8 µM (inactive),> 100 µM (inactive),92.5 µM (inactive),53.2 µM (inactive),> 100 µM (inactive),48.6 µM (inactive),> 100 µM (inactive),> 100 µM (inactive),> 100 µM (inactive),> 100 µM (inactive),> 100 µM (inactive),> 100 µM (inactive),> 100 µM (inactive),44.7 µM (inactive),> 100 µM (inactive),> 100 µM (inactive),,
S=c1sc2c(Cl)nc(Cl)nc2n1-c1ccccc1,36.6 µM (inactive),> 100 µM (inactive),27.2 µM (inactive),82.6 µM (inactive),14.6 µM (inactive),> 100 µM (inactive),32.4 µM (inactive),34.8 µM (inactive),> 100 µM (inactive),22.9 µM (inactive),> 100 µM (inactive),> 100 µM (inactive),> 100 µM (inactive),61.2 µM (inactive),23.5 µM (inactive),31.7 µM (inactive),18.2 µM (inactive),,
Nc1ncc(CN2CCCC2)c(-c2ccccc2O)n1,> 750 µM (inactive),> 750 µM (inactive),> 750 µM (inactive),> 750 µM (inactive),> 750 µM (inactive),> 750 µM (inactive),> 750 µM (inactive),38.4 µM (inactive),> 750 µM (inactive),> 750 µM (inactive),> 750 µM (inactive),> 750 µM (inactive),> 750 µM (inactive),> 750 µM (inactive),4.31 µM (inactive),> 100 µM (inactive),> 750 µM (inactive),,
CC(=O)NNc1nc(C)c(C(=O)NNC(=O)C(=O)Nc2ccc(C)cc2[N+](=O)[O-])s1,> 100 µM (inactive),> 100 µM (inactive),> 100 µM (inactive),> 100 µM (inactive),> 100 µM (inactive),> 100 µM (inactive),98.4 µM (inactive),56.4 µM (inactive),> 100 µM (inactive),47.8 µM (inactive),> 100 µM (inactive),> 100 µM (inactive),> 100 µM (inactive),> 100 µM (inactive),> 100 µM (inactive),> 100 µM (inactive),> 100 µM (inactive),,
CC(=O)C1C(=O)C(=O)N(c2ccccc2)C1=O (stereo unspecified),> 100 µM (inactive),,> 100 µM (inactive),> 100 µM (inactive),> 100 µM (inactive),> 100 µM (inactive),> 100 µM (inactive),> 100 µM (inactive),> 100 µM (inactive),> 100 µM (inactive),> 100 µM (inactive),> 100 µM (inactive),,> 100 µM (inactive),> 100 µM (inactive),> 100 µM (inactive),> 100 µM (inactive),> 100 µM (inactive),> 100 µM (inactive)
CCCCC(C(=O)CCC(=O)Nc1ccc(Cl)c(Cl)c1)C(=O)C(C)C (stereo unspecified),> 100 µM (inactive),> 100 µM (inactive),> 100 µM (inactive),21.6 µM (inactive),19.6 µM (inactive),> 100 µM (inactive),> 100 µM (inactive),63.2 µM (inactive),> 100 µM (inactive),> 100 µM (inactive),32.3 µM (inactive),90.4 µM (inactive),> 100 µM (inactive),> 100 µM (inactive),> 100 µM (inactive),95.5 µM (inactive),> 100 µM (inactive),,
CCN1CC2=C(NC(=S)NC2c2ccc(Cl)cc2)/C(=C/c2ccc(Cl)cc2)C1 (stereo unspecified),88.5 µM (inactive),17.5 µM (inactive),67.1 µM (inactive),23.1 µM (inactive),29.3 µM (inactive),,10.5 µM (inactive),> 100 µM (inactive),35.7 µM (inactive),61.5 µM (inactive),> 100 µM (inactive),> 100 µM (inactive),23 µM (inactive),> 100 µM (inactive),23.7 µM (inactive),> 100 µM (inactive),42 µM (inactive),> 100 µM (inactive),57.5 µM (inactive)
CCCCCCCCCCCCCCCC(=O)OCC1OC(n2cc(F)c(=O)[nH]c2=O)C(NC(=O)N(CCCl)N=O)C(O)C1O (stereo unspecified),3.86 µM (inactive),3.06 µM (inactive),1.31 µM (inactive),0.228 µM (active),0.0103 µM (active),0.122 µM (active),1.21 µM (inactive),0.157 µM (active),4.78 µM (inactive),8.04 µM (inactive),13.1 µM (inactive),10.1 µM (inactive),4.44 µM (inactive),10.4 µM (inactive),0.428 µM (active),1.35 µM (inactive),4.43 µM (inactive),,
O=C(CCCN1CCC(Nc2ccc(F)cc2)(c2nnnn2C2CCCCC2)CC1)c1ccc(F)cc1,23.6 µM (inactive),5.42 µM (inactive),22.5 µM (inactive),11.2 µM (inactive),3.3 µM (inactive),12.6 µM (inactive),5.27 µM (inactive),19.4 µM (inactive),,14.8 µM (inactive),15.7 µM (inactive),15.3 µM (inactive),3.79 µM (inactive),17.2 µM (inactive),6.52 µM (inactive),16.3 µM (inactive),3.69 µM (inactive),16.6 µM (inactive),18.5 µM (inactive)
CC(=O)O[C@H]1C(=O)[C@@]2(C)[C@H]([C@H](OC(=O)c3ccccc3)[C@]3(O)C[C@H](OC(=O)[C@H](O)[C@@H](NC(=O)c4ccccc4)c4ccccc4)C(C)=C1C3(C)C)[C@]1(OC(C)=O)CO[C@@H]1C[C@@H]2O [PACLITAXEL],,0.00267 µM (active),0.00326 µM (active),,0.00419 µM (active),0.00373 µM (active),,0.00355 µM (active),0.203 µM (active),,0.0783 µM (active),0.113 µM (active),0.107 µM (active),,0.00427 µM (active),,0.00708 µM (active),0.054 µM (active),0.00597 µM (active)
O=C(NC12CC3CC(CC(C3)C1)C2)C(=O)c1c[nH]c2ccc([N+](=O)[O-])cc12,19 µM (inactive),> 83 µM (inactive),31.7 µM (inactive),14.2 µM (inactive),19.1 µM (inactive),46.1 µM (inactive),> 100 µM (inactive),15.3 µM (inactive),65.9 µM (inactive),24.8 µM (inactive),> 87.5 µM (inactive),24.9 µM (inactive),37.8 µM (inactive),23.8 µM (inactive),> 35.6 µM (inactive),> 59.8 µM (inactive),> 94.2 µM (inactive),,
O=C(O)CNC(=O)c1c2ccccc2nc2ccccc12,> 100 µM (inactive),> 100 µM (inactive),> 100 µM (inactive),> 100 µM (inactive),> 100 µM (inactive),> 100 µM (inactive),> 100 µM (inactive),> 100 µM (inactive),> 100 µM (inactive),> 100 µM (inactive),> 100 µM (inactive),> 100 µM (inactive),> 100 µM (inactive),> 100 µM (inactive),,> 100 µM (inactive),> 100 µM (inactive),> 100 µM (inactive),
O=C1C(NS(=O)(=O)c2ccccc2)=C(n2cnc3ccccc32)C(=O)c2ccccc21,> 100 µM (inactive),50.5 µM (inactive),> 100 µM (inactive),30.3 µM (inactive),47.3 µM (inactive),> 100 µM (inactive),> 100 µM (inactive),> 100 µM (inactive),> 100 µM (inactive),> 100 µM (inactive),> 100 µM (inactive),89.3 µM (inactive),,> 100 µM (inactive),> 100 µM (inactive),> 100 µM (inactive),52.8 µM (inactive),48.9 µM (inactive),48.6 µM (inactive)
COC(=O)CCC(NC(=O)C(CCC(=O)OC)NC(=O)C(CCC(=O)OC)NC(=O)C(CCC(=O)OC)NC(=O)C(CCC(=O)OC)NC(=O)C(Cc1ccc([N+](=O)[O-])cc1)NC(=O)C(CCC(=O)OC)NC(=O)C(CCC(=O)OC)NC(=O)C(CCC(=O)OC)NC(=O)C(CCC(=O)OC)NC(=O)C(CCC(=O)OC)NC(C)=O)C(N)=O (stereo unspecified) (Ac-E(OMe)E(OMe)E(OMe)E(OMe)E(OMe)[Phe(4-NO2)]E(OMe)E(OMe)E(OMe)E(OMe)E(OMe)-NH2; configuration not given here),> 100 µM (inactive),> 100 µM (inactive),> 100 µM (inactive),> 100 µM (inactive),> 10 µM (inactive),,> 100 µM (inactive),> 100 µM (inactive),> 100 µM (inactive),,> 100 µM (inactive),> 100 µM (inactive),,,,> 100 µM (inactive),> 100 µM (inactive),48.1 µM (inactive),20 µM (inactive)
